What all share (assay): growth of human tumour cells (NCI), 48 h
The test system of experiment [1] is BT-549 breast.
Experiment [2] relates to DU-145 prostate.
Experiment [3] concerns COLO 205 colon.
Experiment [4] has as its system 786-0 renal.
In experiment [5] the test system is M14 melanoma.
The test system of experiment [6] is OVCAR-5 ovarian.
The subject of experiment [7] is RPMI-8226 leukemia.
Experiment [8] relates to MALME-3M melanoma.
For experiment [9], the system named is SF-268 CNS.
Experiment [10] relates to SR leukemia.
Experiment [11] has as its system HOP-62 NSCLC.
Experiment [12] deals with UACC-257 melanoma.
Experiment [13] concerns CCRF-CEM leukemia.
Experiment [14] relates to SN12C renal.
Experiment [15] concerns NCI-H522 lung.
Experiment [16] has as its system HCT-116 colon.
Experiment [17] has as its system SK-MEL-2 melanoma.
In experiment [18] the test system is HT29 colon.
In experiment [19] the test system is U251 CNS.
Experiment [20] deals with A498 renal.

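Test compounds were applied to cells in 96-well plates for 48 hours at 5 doses. The concentration for full growth arrest is given as TGI.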

Turning to `O=C1C(Cl)C(c2cccc(Br)c2)N1c1c(O)c(Cl)cc(Br)c1Cl` (stereo not drawn), the TGI was > 100 µM in experiment [1]; 32.9 µM in experiment [2]; 20.8 µM in [3]; > 100 µM in experiment [4]; 27.1 µM in [5]; 56.5 µM in [6]. In addition, the TGI in experiment [7] was 37.9 µM; in experiment [8], 55.3 µM; in experiment [9], 44.3 µM; in [10] it was 56.3 µM; in experiment [11] it was 32.4 µM; in [12] it was 43.9 µM. The TGI in experiment [13] turned out to be 41.3 µM; in experiment [14] it was 28.3 µM; in experiment [15], 30 µM; in [16], 27.6 µM; in [17], 25 µM; in experiment [18] it was 23 µM. The TGI in experiment [19] was found to be 25.3 µM.

Take `COc1ccc(C(=O)C(CC2C(=O)CC(C)(C)C(C(=O)C(=O)Nc3c(C)cccc3C)C2=O)c2ccc(OC)cc2)cc1` (stereo not drawn): the TGI in experiment [1], in experiment [2], in experiment [3], in experiment [4], in experiment [5] and in experiment [6] was > 100 µM throughout. Besides, the TGI was > 100 µM in experiment [9]; 91.9 µM in experiment [10]; > 100 µM in experiment [11]; > 100 µM in experiment [12]; > 100 µM in [13]; > 100 µM in experiment [14]. The TGI in experiment [15], in experiment [16], in experiment [17], in [18] and in [19] was > 100 µM each time.

As to `Cc1cn(C2CC(N=[N+]=[N-])C(CO)O2)c(=O)n(CCCCO)c1=O` (stereo not drawn), the TGI in experiment [1], in experiment [2], in [3], in experiment [4], in experiment [5] and in [6] was > 100 µM each time. Besides, the TGI in experiment [7], in experiment [20], in experiment [8], in experiment [9], in experiment [11] and in [12] was > 100 µM throughout. Moreover, the TGI in experiment [13], in experiment [14], in experiment [15], in experiment [16], in [17] and in experiment [18] was > 100 µM throughout. In [19], the TGI is > 100 µM.

`Cc1ccc(C2SC(N)=Nc3c2c(C)nn3C(=O)c2ccc(Cl)cc2)cc1` (stereo not drawn): the TGI in experiment [1], in experiment [2], in [3], in [4], in experiment [5] and in [6] was > 10 µM throughout. For the same molecule, the TGI in experiment [7], in experiment [8], in [9], in experiment [10], in experiment [11] and in experiment [12] was > 10 µM throughout. Further, the TGI in [13], in experiment [14], in [15], in experiment [16], in experiment [17] and in experiment [18] was > 10 µM throughout. Besides, in experiment [19], the TGI is > 10 µM.

`O=C(/C=C/c1ccc(O)cc1)c1cc(O)cc(O)c1`: the TGI in experiment [1] was 29.8 µM; in [2] it was 25.2 µM; in [3] it was 31.9 µM; in experiment [4], 30.6 µM; in experiment [5] it was 29.3 µM; in experiment [6], 29 µM. In addition, the TGI in [7] worked out at 21.3 µM; in experiment [20], 28.1 µM; in experiment [8], 47.3 µM; in experiment [9], 54.3 µM; in experiment [11], 29 µM; in experiment [12], 30.3 µM. For the same molecule, the TGI in experiment [13] was 35.1 µM; in [14] it was 28.4 µM; in experiment [15], 18.1 µM; in [16], 26.3 µM; in experiment [17], 34.9 µM; in experiment [18], 35 µM. Moreover, in [19], the TGI stood at 27.5 µM.

Consider `COc1cc2c(cc1OC)CN1CCc3ccccc3CC1C2` (stereo not drawn), for which the TGI in [1], in experiment [2], in [3], in experiment [4], in [5] and in experiment [6] was > 100 µM in each case. For the same molecule, the TGI was > 100 µM in experiment [20]; > 100 µM in [8]; 23.5 µM in experiment [10]; > 100 µM in [11]; > 100 µM in [12]; > 100 µM in experiment [13]. For the same molecule, the TGI in experiment [14], in [16], in [17], in [18] and in [19] was > 100 µM in each case.

Consider `N#CC1C(=O)NC2=C(CCOc3c2ccc2ccccc32)C1c1ccc(F)cc1` (stereo not drawn), for which the TGI in experiment [1] is > 100 µM; in experiment [2], > 100 µM; in [3], > 100 µM; in [4] it was 32.8 µM; in experiment [5] it was 68 µM; in experiment [6], 71.9 µM. Moreover, the TGI in experiment [20] was 44.1 µM; in experiment [8], 79 µM; in [9] it was 88.8 µM; in [11] it was 33.6 µM; in [12] it was > 100 µM; in experiment [13], > 100 µM. For the same molecule, the TGI is 27.3 µM in experiment [14]; > 100 µM in experiment [15]; 27 µM in experiment [16]; > 100 µM in experiment [17]; 24.7 µM in experiment [19].

Turning to `CCCCCCCCCCCCCCCCNc1ccc2c(c1)OCCOCCOCCOCCO2`, the TGI in [1] worked out at 11.6 µM; in experiment [2] it was 15.3 µM; in experiment [3], 3.18 µM; in experiment [4] it was 13.8 µM; in experiment [5], 13.5 µM; in [6] it was 14.2 µM. Also, the TGI was 4.49 µM in experiment [7]; 13.6 µM in [8]; 11.9 µM in experiment [9]; 8.14 µM in experiment [10]; 7.28 µM in experiment [11]; 6.91 µM in [12]. The TGI in experiment [13] turned out to be 7.62 µM; in [14], 10.5 µM; in [15], 8.68 µM; in [16], 11.3 µM; in experiment [17], 4.44 µM; in experiment [18], 10.9 µM. Moreover, the TGI in experiment [19] turned out to be 10.4 µM.

Take `C=CCN(c1cc(OCc2ccccc2)c2c(c1)c(C)cn2S(=O)(=O)c1ccccc1)S(C)(=O)=O`: the TGI in experiment [1], in experiment [2], in [3], in experiment [4], in experiment [5] and in [6] was > 100 µM throughout. The TGI in [7], in experiment [8], in experiment [9], in [10], in [11] and in experiment [12] was > 100 µM in each case. The TGI in experiment [13], in experiment [14], in experiment [15], in experiment [16], in experiment [17] and in experiment [18] was > 100 µM throughout. The TGI in experiment [19] is > 100 µM.

With `Cc1nc2ccc(S(=O)(=O)Nc3ccccc3Cl)cc2c(=O)n1NC(=O)CNc1ccccc1Cl`, the TGI in experiment [1], in experiment [2], in experiment [3], in experiment [4], in experiment [5] and in [6] was > 100 µM in each case. In addition, the TGI in experiment [7], in experiment [8], in [9], in [10], in experiment [11] and in experiment [12] was > 100 µM throughout. Further, the TGI in experiment [13], in experiment [14], in experiment [15], in [16], in [17] and in [18] was > 100 µM each time. In addition, the TGI in [19] is > 100 µM.

In the case of `CC(C)N(C(=O)c1ccc(NCc2cc(O)ccc2O)cc1)C(C)C`, the TGI in experiment [1] was 30.7 µM; in experiment [2] it was 30 µM; in experiment [3], > 100 µM; in experiment [4], 26.6 µM; in [5], 35.7 µM; in experiment [6] it was 43.8 µM. Besides, the TGI in experiment [20] is 62.2 µM; in [8], 28.9 µM; in [9], 36.2 µM; in experiment [10], > 100 µM; in [11], 69.4 µM; in experiment [12], 31.4 µM. In addition, the TGI in [13] is > 100 µM; in experiment [14], 49 µM; in experiment [16], 29.6 µM; in experiment [17], 57.9 µM; in experiment [18], 35 µM; in [19] it was 32.6 µM.

As for `Cc1cccc(Nc2nc(NNC(=O)Cc3ccccc3)nc(NNC(=O)c3ccncc3)n2)c1`, the TGI in experiment [1], in [2], in [3], in experiment [4], in experiment [5] and in experiment [7] was > 10 µM each time. Besides, the TGI in [8], in experiment [9], in experiment [10], in experiment [11], in experiment [12] and in experiment [13] was > 10 µM throughout. For the same molecule, the TGI in experiment [14], in experiment [15], in experiment [16] and in experiment [18] was > 10 µM each time.

Turning to `O=C1CCCCCCCCCCC1CN(Cc1ccccc1)Cc1ccccc1` (stereo not drawn), the TGI in experiment [1], in experiment [2], in experiment [3], in experiment [4], in experiment [5] and in experiment [6] was > 100 µM each time. For the same molecule, the TGI in experiment [7] is > 100 µM; in experiment [8], 75.2 µM; in experiment [9], > 100 µM; in experiment [10], > 100 µM; in experiment [11], > 100 µM; in experiment [12] it was > 100 µM. Further, the TGI in experiment [13] was 50.2 µM; in experiment [14], > 100 µM; in experiment [15], > 100 µM; in experiment [16] it was 55.9 µM; in experiment [19], 49.6 µM.

In the case of `CN(C)C(=O)C(F)(F)C(c1ccc(C(F)(F)F)cc1)C1C(=O)N(C)C(=O)N(C)C1=O` (stereo not drawn), the TGI in [1], in experiment [2], in [3], in experiment [4], in experiment [5] and in experiment [6] was > 100 µM each time. Also, the TGI in experiment [7], in [20], in experiment [9], in experiment [11], in experiment [12] and in experiment [13] was > 100 µM each time. For the same molecule, the TGI in [16], in experiment [17] and in experiment [19] was > 100 µM throughout.

As for `Cc1cccc2c(N)c3cccc(C(=O)NCCN4CCOCC4)c3nc12`, the TGI is 8.54 µM in [1]; 11.6 µM in experiment [2]; 2.49 µM in experiment [3]; 20.5 µM in experiment [4]; 7.33 µM in experiment [5]; 8.7 µM in experiment [6]. The TGI in experiment [7] was > 60.4 µM; in experiment [20], 5 µM; in experiment [8], 1.31 µM; in experiment [9], 1.19 µM; in experiment [11] it was 7.55 µM; in experiment [12], 7.81 µM. The TGI is 7.97 µM in experiment [14]; 1.86 µM in experiment [15]; 24.9 µM in experiment [16]; 2.61 µM in experiment [17]; 3.99 µM in experiment [18]; 20.5 µM in experiment [19].

(Values after PubChem BioAssay (NCI).)
